Paper PMC5218480 (PLoS ONE, 2017)

Test system: MV-4-11 cells
Experiment: Gene expression microarray analysis (Affymetrix PrimeView) and GSEA
Type: cell-based, human
Set-up: RFU PODN (11730768_x_at) / Fold change /veh PODN (11730768_x_at) / RFU LINC00158 (11744669_a_at) / Fold change /veh LINC00158 (11744669_a_at) / RFU DUSP10 (11751237_a_at) / Fold change /veh DUSP10 (11751237_a_at) / RFU ID3 (11757404_x_at) / Fold change /veh ID3 (11757404_x_at) / RFU PLEKHG5 (11737974_s_at) / Fold change /veh PLEKHG5 (11737974_s_at) / RFU LRRC4B (11730491_at) / Fold change /veh LRRC4B (11730491_at) / RFU GIMAP4 (11747438_a_at) / Fold change /veh GIMAP4 (11747438_a_at) / RFU KRT8 (11758183_x_at) / Fold change /veh KRT8 (11758183_x_at) / RFU CNN1 (11734310_a_at) / Fold change /veh CNN1 (11734310_a_at) / RFU VPS37D (11726825_at) / Fold change /veh VPS37D (11726825_at) / RFU C10orf10 (11716522_x_at) / Fold change /veh C10orf10 (11716522_x_at) / RFU KIR2DL2 /// KIR2DL4 /// KIR2DL5A /// KIR2DL5B /// KIR2DS1 /// KIR2DS2 /// KIR2DS3 /// KIR2DS4 /// KIR3DL3 /// KIR3DL3 /// KIR3DS1 (11738374_at) / Fold change /veh KIR2DL2 /// KIR2DL4 /// KIR2DL5A /// KIR2DL5B /// KIR2DS1 /// KIR2DS2 /// KIR2DS3 /// KIR2DS4 /// KIR3DL3 /// KIR3DL3 /// KIR3DS1 (11738374_at) / RFU C1QL1 (11718748_at) / Fold change /veh C1QL1 (11718748_at) / RFU TMPRSS4 (11747572_a_at) / Fold change /veh TMPRSS4 (11747572_a_at) / RFU HAMP (11756126_x_at) / Fold change /veh HAMP (11756126_x_at) / RFU RNFT2 (11725882_a_at) / Fold change /veh RNFT2 (11725882_a_at) / RFU NR4A2 (11747474_a_at) / Fold change /veh NR4A2 (11747474_a_at) / RFU ABCC12 (11746883_a_at) / Fold change /veh ABCC12 (11746883_a_at) / RFU TMEM136 (11760407_x_at) / Fold change /veh TMEM136 (11760407_x_at) / RFU CLDN22 /// WWC2 (11732394_at) / Fold change /veh CLDN22 /// WWC2 (11732394_at) / RFU HLA-DPB1 (11760878_x_at) / Fold change /veh HLA-DPB1 (11760878_x_at) / RFU SPINT1 (11716480_a_at) / Fold change /veh SPINT1 (11716480_a_at) / RFU GAP43 (11754022_s_at) / Fold change /veh GAP43 (11754022_s_at) / RFU A4GNT (11735810_at) / Fold change /veh A4GNT (11735810_at) / RFU PRB3 (11715151_x_at) / Fold change /veh PRB3 (11715151_x_at) / RFU TUBB4B (11761932_at) / Fold change /veh TUBB4B (11761932_at) / RFU CAPN14 (11732068_a_at) / Fold change /veh CAPN14 (11732068_a_at) / RFU TMCC2 (11721928_a_at) / Fold change /veh TMCC2 (11721928_a_at) / RFU IRGQ (11745062_a_at) / Fold change /veh IRGQ (11745062_a_at) / RFU FAM174B (11720279_a_at) / Fold change /veh FAM174B (11720279_a_at) / RFU TMPRSS4 (11748680_a_at) / Fold change /veh TMPRSS4 (11748680_a_at) / RFU FAM212B (11763350_a_at) / Fold change /veh FAM212B (11763350_a_at) / RFU PLEKHG5 (11743358_a_at) / Fold change /veh PLEKHG5 (11743358_a_at) / RFU ZSCAN30 (11745921_a_at) / Fold change /veh ZSCAN30 (11745921_a_at) / RFU CMKLR1 (11741424_a_at) / Fold change /veh CMKLR1 (11741424_a_at) / RFU LOC101060620 /// MAPK8IP1 (11723275_at) / Fold change /veh LOC101060620 /// MAPK8IP1 (11723275_at) / RFU SPTSSB (11747773_x_at) / Fold change /veh SPTSSB (11747773_x_at) / RFU PRSS12 (11739890_at) / Fold change /veh PRSS12 (11739890_at) / RFU BIN1 (11741810_x_at) / Fold change /veh BIN1 (11741810_x_at) / RFU WNT11 (11732464_a_at) / Fold change /veh WNT11 (11732464_a_at) / RFU C10orf10 (11716521_a_at) / Fold change /veh C10orf10 (11716521_a_at) / RFU C5orf56 (11738089_at) / Fold change /veh C5orf56 (11738089_at) / RFU CYB561 (11721691_x_at) / Fold change /veh CYB561 (11721691_x_at) / RFU ANKRD19P (11752326_a_at) / Fold change /veh ANKRD19P (11752326_a_at) / RFU OR2T12 /// OR2T33 /// OR2T8 (11738714_s_at) / Fold change /veh OR2T12 /// OR2T33 /// OR2T8 (11738714_s_at) / RFU VCAN (11748164_a_at) / Fold change /veh VCAN (11748164_a_at) / RFU JSRP1 (11732532_at) / Fold change /veh JSRP1 (11732532_at) / RFU KRTAP10-11 (11738290_x_at) / Fold change /veh KRTAP10-11 (11738290_x_at) / RFU MYO3A (11730013_a_at) / Fold change /veh MYO3A (11730013_a_at) / RFU EBF3 (11725865_a_at) / Fold change /veh EBF3 (11725865_a_at) / RFU CAMK2N1 (11719241_x_at) / Fold change /veh CAMK2N1 (11719241_x_at) / RFU C5orf56 (11738088_a_at) / Fold change /veh C5orf56 (11738088_a_at) / RFU OLFML3 (11715873_a_at) / Fold change /veh OLFML3 (11715873_a_at) / RFU LOC100653217 /// NTM (11731650_a_at) / Fold change /veh LOC100653217 /// NTM (11731650_a_at) / RFU MAPK11 (11762145_a_at) / Fold change /veh MAPK11 (11762145_a_at) / RFU FIZ1 (11724087_x_at) / Fold change /veh FIZ1 (11724087_x_at) / RFU OASL (11726364_x_at) / Fold change /veh OASL (11726364_x_at) / RFU SOX15 (11748057_x_at) / Fold change /veh SOX15 (11748057_x_at) / RFU CD79A (11719716_a_at) / Fold change /veh CD79A (11719716_a_at) / RFU HIST1H1D (11736915_at) / Fold change /veh HIST1H1D (11736915_at) / RFU CASKIN2 (11723855_a_at) / Fold change /veh CASKIN2 (11723855_a_at) / RFU LOC730098 (11760151_x_at) / Fold change /veh LOC730098 (11760151_x_at) / RFU OR4N2 (11742367_at) / Fold change /veh OR4N2 (11742367_at) / RFU PRRT2 (11749266_a_at) / Fold change /veh PRRT2 (11749266_a_at) / RFU SNX32 (11753110_a_at) / Fold change /veh SNX32 (11753110_a_at) / RFU CDHR5 (11726645_a_at) / Fold change /veh CDHR5 (11726645_a_at) / RFU RCAN1 (11760418_a_at) / Fold change /veh RCAN1 (11760418_a_at) / RFU FAM167A (11723789_a_at) / Fold change /veh FAM167A (11723789_a_at) / RFU FAM26E (11764081_at) / Fold change /veh FAM26E (11764081_at) / RFU ISYNA1 (11749810_s_at) / Fold change /veh ISYNA1 (11749810_s_at) / RFU ACY1 (11761880_at) / Fold change /veh ACY1 (11761880_at) / RFU 11764098_at / Fold change /veh 11764098_at / RFU SAMD14 (11745864_x_at) / Fold change /veh SAMD14 (11745864_x_at) / RFU NPB (11741838_a_at) / Fold change /veh NPB (11741838_a_at) / RFU TMPRSS6 (11731388_a_at) / Fold change /veh TMPRSS6 (11731388_a_at) / RFU KRTAP10-2 (11738614_at) / Fold change /veh KRTAP10-2 (11738614_at) / RFU ARHGAP8 /// PRR5-ARHGAP8 (11727945_x_at) / Fold change /veh ARHGAP8 /// PRR5-ARHGAP8 (11727945_x_at) / RFU KRTAP5-7 /// NADSYN1 (11734609_at) / Fold change /veh KRTAP5-7 /// NADSYN1 (11734609_at) / RFU RASL12 (11751679_a_at) / Fold change /veh RASL12 (11751679_a_at) / RFU CDKN2B (11736163_a_at) / Fold change /veh CDKN2B (11736163_a_at) / RFU PRF1 (11729649_at) / Fold change /veh PRF1 (11729649_at) / RFU, ZNF638 /// ZNF638-IT1 / Fold change vs veh, ZNF638 /// ZNF638-IT1 / RFU, PANK3 / Fold change vs veh, PANK3 / RFU, SH3YL1 / Fold change vs veh, SH3YL1 / RFU, ZEB2 / Fold change vs veh, ZEB2 / RFU, NRIP1 / Fold change vs veh, NRIP1 / RFU, PTTG1IP / Fold change vs veh, PTTG1IP / RFU, CAPN2 / Fold change vs veh, CAPN2 / RFU, MED14 / Fold change vs veh, MED14 / RFU, SNORA58 / Fold change vs veh, SNORA58 / RFU, C1orf63 / Fold change vs veh, C1orf63 / RFU, LRRFIP1 / Fold change vs veh, LRRFIP1 / RFU, NDUFAF7 / Fold change vs veh, NDUFAF7 / RFU, SLC12A2 / Fold change vs veh, SLC12A2 / RFU, IBTK / Fold change vs veh, IBTK / RFU, ESF1 / Fold change vs veh, ESF1 / Fold change vs veh, TMEM50B / RFU, TAOK1 / Fold change vs veh, TAOK1 / RFU, ACBD3 / Fold change vs veh, ACBD3 / RFU, TMA16 / Fold change vs veh, TMA16 / RFU, RWDD3 / Fold change vs veh, RWDD3 / RFU, BCAT1 / Fold change vs veh, BCAT1 / RFU, EDEM3 / Fold change vs veh, EDEM3 / RFU, TMEM33 / Fold change vs veh, TMEM33 / RFU, WDR75 / Fold change vs veh, WDR75 / RFU, AHCTF1 / Fold change vs veh, AHCTF1 / RFU, TFRC / Fold change vs veh, TFRC / RFU, ZDHHC17 / Fold change vs veh, ZDHHC17 / RFU, NOM1 / Fold change vs veh, NOM1 / RFU, ARL8B / Fold change vs veh, ARL8B / RFU, ZBTB11 / Fold change vs veh, ZBTB11 / RFU, TAMM41 / Fold change vs veh, TAMM41 / RFU, KIAA1704 /// LOC100996395 / Fold change vs veh, KIAA1704 /// LOC100996395 / RFU, ING1 / Fold change vs veh, ING1 / RFU, TRMT61B / Fold change vs veh, TRMT61B / RFU, FUBP3 / Fold change vs veh, FUBP3 / RFU, TP53 / Fold change vs veh, TP53 / RFU, TNKS2 / Fold change vs veh, TNKS2 / RFU, ZFP14 / Fold change vs veh, ZFP14 / RFU, ACTR2 / Fold change vs veh, ACTR2 / RFU, PPP3R1 / Fold change vs veh, PPP3R1 / RFU, PIK3R1 / Fold change vs veh, PIK3R1 / RFU, HNRNPA1 / Fold change vs veh, HNRNPA1 / RFU, RNF170 / Fold change vs veh, RNF170 / RFU, ZNF28 / Fold change vs veh, ZNF28 / RFU, RNGTT / Fold change vs veh, RNGTT / RFU, OGT / Fold change vs veh, OGT / RFU, BRD1 / Fold change vs veh, BRD1 / RFU, MARS / Fold change vs veh, MARS / RFU, ZNF655 / Fold change vs veh, ZNF655 / RFU, FAHD1 / Fold change vs veh, FAHD1 / RFU, BDP1 / Fold change vs veh, BDP1 / RFU, LRRCC1 / Fold change vs veh, LRRCC1 / RFU, ARID1A / Fold change vs veh, ARID1A / RFU, ZNF146 / Fold change vs veh, ZNF146 / RFU, ZNF330 / Fold change vs veh, ZNF330 / RFU, GPN3 / Fold change vs veh, GPN3 / RFU, C9orf123 / Fold change vs veh, C9orf123 / RFU, N4BP2L2 / Fold change vs veh, N4BP2L2 / RFU, ARFIP1 / Fold change vs veh, ARFIP1 / RFU, FAM179B / Fold change vs veh, FAM179B / RFU, BCL10 / Fold change vs veh, BCL10 / RFU, UHRF1BP1L / Fold change vs veh, UHRF1BP1L / RFU, BET1 / Fold change vs veh, BET1 / RFU, CNOT2 / Fold change vs veh, CNOT2 / RFU, ZNF268 / Fold change vs veh, ZNF268 / Fold change vs veh, ZNF507 / RFU, DGCR2 / Fold change vs veh, DGCR2 / RFU, WDSUB1 / Fold change vs veh, WDSUB1 / Fold change vs veh, HSP90B1 /// MIR3652 / RFU, ADSS / Fold change vs veh, ADSS / RFU, GK / Fold change vs veh, GK / RFU, ZNF148 / Fold change vs veh, ZNF148 / RFU, TAF9 / Fold change vs veh, TAF9 / RFU, SLC1A5 / Fold change vs veh, SLC1A5 / RFU, SLMO2 / Fold change vs veh, SLMO2 / RFU, ABCC4 / Fold change vs veh, ABCC4 / RFU, LOC101060439 /// RAP1B / Fold change vs veh, LOC101060439 /// RAP1B / RFU, RFX7 / Fold change vs veh, RFX7 / RFU, GTPBP10 / Fold change vs veh, GTPBP10 / RFU, CNEP1R1 / Fold change vs veh, CNEP1R1 / RFU, BIVM-ERCC5 /// ERCC5 / Fold change vs veh, BIVM-ERCC5 /// ERCC5 / RFU, ILF3 / Fold change vs veh, ILF3 / RFU 11762660_at / Fold change /veh 11762660_at / RFU VCAN (11757783_s_at) / Fold change /veh VCAN (11757783_s_at) / RFU DDX43 (11728927_at) / Fold change /veh DDX43 (11728927_at) / RFU KRT8 (11758188_x_at) / Fold change /veh KRT8 (11758188_x_at) / RFU NKD1 (11759106_at) / Fold change /veh NKD1 (11759106_at) / RFU SRD5A1 (11742802_a_at) / Fold change /veh SRD5A1 (11742802_a_at) / RFU TPSAB1 /// TPSB2 (11721975_s_at) / Fold change /veh TPSAB1 /// TPSB2 (11721975_s_at) / RFU GSTM3 (11746129_a_at) / Fold change /veh GSTM3 (11746129_a_at) / RFU IL23R (11737362_x_at) / Fold change /veh IL23R (11737362_x_at) / RFU TMEM51 (11727254_a_at) / Fold change /veh TMEM51 (11727254_a_at) / RFU PIWIL2 (11732686_x_at) / Fold change /veh PIWIL2 (11732686_x_at) / RFU ORM1 (11744905_x_at) / Fold change /veh ORM1 (11744905_x_at) / RFU CCDC152 (11743942_at) / Fold change /veh CCDC152 (11743942_at) / RFU ECM1 (11717891_a_at) / Fold change /veh ECM1 (11717891_a_at) / RFU IL23R (11748794_a_at) / Fold change /veh IL23R (11748794_a_at) / RFU TNFAIP8L3 (11732012_x_at) / Fold change /veh TNFAIP8L3 (11732012_x_at) / RFU MBOAT4 (11741988_at) / Fold change /veh MBOAT4 (11741988_at) / RFU 11764193_at / Fold change /veh 11764193_at / RFU TMEM53 (11763286_at) / Fold change /veh TMEM53 (11763286_at) / RFU MAGEB2 (11727129_at) / Fold change /veh MAGEB2 (11727129_at) / RFU TMEM200A (11744735_a_at) / Fold change /veh TMEM200A (11744735_a_at) / RFU CCDC152 (11751479_a_at) / Fold change /veh CCDC152 (11751479_a_at) / RFU FAM211A (11726209_a_at) / Fold change /veh FAM211A (11726209_a_at) / RFU RGS16 (11746705_a_at) / Fold change /veh RGS16 (11746705_a_at) / RFU VCAN (11755009_s_at) / Fold change /veh VCAN (11755009_s_at) / RFU RHOB (11743442_s_at) / Fold change /veh RHOB (11743442_s_at) / RFU RGS16 (11720943_a_at) / Fold change /veh RGS16 (11720943_a_at) / RFU RGS16 (11720944_at) / Fold change /veh RGS16 (11720944_at) / RFU, VPS4B / Fold change vs veh, VPS4B / RFU, CREB1 / Fold change vs veh, CREB1 / RFU, DNAJC13 / Fold change vs veh, DNAJC13 / RFU, GNAQ / Fold change vs veh, GNAQ / RFU, CDK5R1 / Fold change vs veh, CDK5R1 / RFU, ZRANB3 / Fold change vs veh, ZRANB3 / RFU, CUL4A / Fold change vs veh, CUL4A / RFU, CCNY / Fold change vs veh, CCNY / RFU, UFL1 / Fold change vs veh, UFL1 / RFU, COG3 / Fold change vs veh, COG3 / RFU, DIAPH2 / Fold change vs veh, DIAPH2 / RFU, SKA2 / Fold change vs veh, SKA2 / RFU, AFF3 / Fold change vs veh, AFF3 / RFU, LMF1 / Fold change vs veh, LMF1 / RFU, IPO11 / Fold change vs veh, IPO11 / RFU, DFFB / Fold change vs veh, DFFB / RFU, FOXP1 / Fold change vs veh, FOXP1 / RFU, CARD8 / Fold change vs veh, CARD8 / RFU, STRN3 / Fold change vs veh, STRN3 / RFU, ADK / Fold change vs veh, ADK / RFU, RASSF2 / Fold change vs veh, RASSF2 / RFU, WIPF1 / Fold change vs veh, WIPF1 / RFU, LARP1B / Fold change vs veh, LARP1B / RFU, RASA1 / Fold change vs veh, RASA1 / RFU, RB1 / Fold change vs veh, RB1 / RFU, PPFIA1 / Fold change vs veh, PPFIA1 / RFU, MAT2A / Fold change vs veh, MAT2A / RFU, CCT5 / Fold change vs veh, CCT5 / RFU, WDR92 / Fold change vs veh, WDR92 / RFU, CUX1 / Fold change vs veh, CUX1 / RFU, TTC7A / Fold change vs veh, TTC7A / RFU, TMEM135 / Fold change vs veh, TMEM135 / RFU, DEPTOR / Fold change vs veh, DEPTOR / RFU, CPM / Fold change vs veh, CPM / RFU, DNAJB6 / Fold change vs veh, DNAJB6 / RFU, CACNA2D3 / Fold change vs veh, CACNA2D3 / RFU, DTX4 / Fold change vs veh, DTX4 / RFU, TFCP2 / Fold change vs veh, TFCP2 / RFU, GMCL1 /// GMCL1P1 / Fold change vs veh, GMCL1 /// GMCL1P1 / RFU, AEBP2 / Fold change vs veh, AEBP2 / RFU, SNHG1 /// SNORD22 /// SNORD25 /// SNORD26 /// SNORD27 /// SNORD28 /// SNORD29 /// SNORD31 / Fold change vs veh, SNHG1 /// SNORD22 /// SNORD25 /// SNORD26 /// SNORD27 /// SNORD28 /// SNORD29 /// SNORD31 / Fold change (Aza/veh), C12orf56 (ProbeSet 11735607_a_at) / Fold change (ACY-1035/veh), C12orf56 (ProbeSet 11735607_a_at) / Fold change (Aza/veh), FGFR1OP (ProbeSet 11751329_s_at) / Fold change (ACY-1035/veh), FGFR1OP (ProbeSet 11751329_s_at) / Fold change (Aza/veh), VPS36 (ProbeSet 11739960_a_at) / Fold change (ACY-1035/veh), VPS36 (ProbeSet 11739960_a_at) / RFU SYPL1 (11715823_x_at) / Fold change /veh SYPL1 (11715823_x_at) / RFU IGFBP7 (11715501_s_at) / Fold change /veh IGFBP7 (11715501_s_at) / RFU REEP3 (11722064_at) / Fold change /veh REEP3 (11722064_at) / RFU IGLL1 (11728026_x_at) / Fold change /veh IGLL1 (11728026_x_at): dose or concentration left out as unconfirmed
Conditions: ProbeSet 11741070_a_at; LIST B

## Nc1ncn([C@@H]2O[C@H](CO)[C@@H](O)[C@H]2O)c(=O)n1 [azacitidine]
  RFU, ZNF146: 2051.58 RFU
